Here are results for 1 compound from patent publication US8236820B2, “Anti-inflammatory compounds and uses thereof” (priority 2007, dated 2012).

In experiment [1] the test system is HT29. Put plainly: Cell viability (MTT) assay, 24-h IC50, HT29. The experiment is classed as cell-based, human. As to conditions: Homo sapiens, HT-29, 24 h, read-out: 24-h IC50.
Experiment [2] has as its system MDA-MB231. Put plainly: Cell viability (MTT) assay, 24-h IC50, MDA-MB231. Type of experiment: cell-based, human. As to conditions: Homo sapiens, MDA-MB-231, 24 h, read-out: 24-h IC50.
Experiment [3] relates to HT-29. Briefly: DFMO / phospho-sulindac I synergy, cell growth at 48 h, HT-29. Type of experiment: cell-based, human. The settings on record: HT-29, 48 h; DFMO 5 mM, phospho-sulindac I 40 μM. On the procedure:
A—Left panel: Cell viability was determined in HT-29 (full bars) and SW-480 (empty bars) cells after 48 h of incubation with 5 mM DFMO, 40 μM phospho-sulindac (P-S) or simultaneous combination of DFMO and P-S. Data are expressed as percentage of control cells (cells incubated only with DMSO). […] Right panel: In this isobologram the additivity line connects the IC50 value of each compound used alone. A and B represent two different dose pairs of each compound (their respective concentrations are shown in parentheses). The location of both A and B below the additivity line signifies synergy. […] DNA content was determined from propidium iodide (PI) fluorescence. C—Apoptosis and necrosis were determined by combined staining with annexin V and PI and determining fluorescence intensity. The percentages of apoptotic cells were determined using the dual staining with annexin V and propidium iodide and are indicated in each quadrant: left bottom quadrant, viable cells (annexin V-negative/PI-negative); right bottom quadrant, early apoptotic cells (annexin V-positive/PI-negative); right upper quadrant, late apoptotic cells (annexin V-positive/PI-positive); left upper quadrant, necrotic cells (annexin V-negative, PI-positive). […]

Experiment [4] concerns BxPC-3. Briefly: Cell viability (MTT) assay, 24-h IC50, BxPC-3. The settings on record: Homo sapiens, BXPC-3, 24 h, read-out: 24-h IC50.
Procedure: Cells were incubated at 37° C. in 5% CO2. Cells were seeded at 5.5×10^4 cells/cm^2, allowed to attach overnight, and the following morning cells were treated with each of the test compounds.
Cell viability assay: We used an assay based on the reduction of 3-(4,5-dimethylthiazol-2-yl)-2,5-diphenyltetrazolium bromide dye (MTT), which was determined according to the manufacture's protocol (Promega, Madison, Wis., USA).
Experiment [5] deals with spermidine/spermine N^1-acetyltransferase (SSAT). Briefly: SSAT enzymatic activity in HT-29 cells. Type of experiment: cell-based, human. As to conditions: HT-29, 24 h; phospho-sulindac I 85 μM; P<0.05 versus control. Here is the method: SW480 cells were incubated without or with phospho-sulindac I (P-S) for up to 24 h and SSAT activity was determined at each time point by determining the amount of labelled N1-acetylspermidine synthesized from [^14C]acetyl-CoA and unlabeled spermidine.
The effect of phospho-sulindac I on polyamines is mediated, at least in part, by activation of SSAT by phospho-sulindac I. It is known that conventional sulindac induces SSAT activity (Babbar et al., Cyclooxygenase-independent induction of apoptosis by sulindac sulfone is mediated by polyamines in colon cancer. J Biol Chem 2003; 278(48):47762-75.). Incubation of HT-29 and SW480 cells with 85 μM phospho-sulindac I for 24 h leads to a 3- and 4.4-fold increase of SSAT activity (P<0.05 versus control), respectively. On the other hand, incubation with sulindac led to a 1.5 and 2.5-fold increase of SSAT activity (P<0.05 versus control) in HT-29 and SW480 cells, respectively.

Molecules are shown by their SMILES. pIC50: −log10 of the molar value.

The pIC50 is −log10 of the IC50, conventionally taken in molar units. For the compound `CCOP(=O)(OCC)OCCCCOC(=O)CC1=C(C)/C(=C/c2ccc([S+](C)[O-])cc2)c2ccc(F)cc21` (centres unmarked) [Phospho-sulindac I], the pIC50 was 4.19 in experiment [1], 4.77 in experiment [2] and 4.21 in experiment [4]. Further, the “reduction in cell number” value in experiment [3] was found to be 41%. Also, in experiment [5], the “increase of SSAT activity” value is listed as 3 fold.
